Reference: ChEMBL document CHEMBL1142311, “Discovery and SAR of 1,3,4-thiadiazole derivatives as potent Abl tyrosine kinase inhibitors and cytodifferentiating agents” (Bioorg Med Chem Lett, 2008)
The source made the active and inactive calls. The rule behind the calls is not given here.

What was measured:
[1] = Reduction of clonogenic activity in Bcr-Abl expressing mouse 32D clone cells; details: read-out: LD50
Mus musculus [2] = species: Mus musculus; assay: Inhibition of p210Bcr-Abl phosphorylation in gleevec-sensitive mouse 32D cells at 10 uM
Mus musculus [3] = species: Mus musculus; assay: Inhibition of p210Bcr-Abl phosphorylation in gleevec-resistant mouse 32D cells at 10 uM
HL-60 [4] = assay: Growth inhibition of human HL60 cells after 96 hrs; assay type: functional, cell-based
HL-60 [5] = assay: Growth inhibition of human HL60 cells upto 100 uM after 96 hrs; assay type: functional, cell-based
HL-60 [6] = assay: Effect on PMA-stimulated human HL60 cells assessed as recovery of ROS metabolism; assay type: functional, cell-based
HL-60 [7] = assay: Effect on zymosan-stimulated human HL60 cells assessed as recovery of ROS metabolism; assay type: functional, cell-based
[8] = biological target: Proto-oncogene tyrosine-protein kinase Src (Homo sapiens) (UniProt P12931); assay: Inhibition of recombinant human c-Src
Proto-oncogene tyrosine-protein kinase Src (Homo sapiens), sequence (P12931 2-536 limits assumed): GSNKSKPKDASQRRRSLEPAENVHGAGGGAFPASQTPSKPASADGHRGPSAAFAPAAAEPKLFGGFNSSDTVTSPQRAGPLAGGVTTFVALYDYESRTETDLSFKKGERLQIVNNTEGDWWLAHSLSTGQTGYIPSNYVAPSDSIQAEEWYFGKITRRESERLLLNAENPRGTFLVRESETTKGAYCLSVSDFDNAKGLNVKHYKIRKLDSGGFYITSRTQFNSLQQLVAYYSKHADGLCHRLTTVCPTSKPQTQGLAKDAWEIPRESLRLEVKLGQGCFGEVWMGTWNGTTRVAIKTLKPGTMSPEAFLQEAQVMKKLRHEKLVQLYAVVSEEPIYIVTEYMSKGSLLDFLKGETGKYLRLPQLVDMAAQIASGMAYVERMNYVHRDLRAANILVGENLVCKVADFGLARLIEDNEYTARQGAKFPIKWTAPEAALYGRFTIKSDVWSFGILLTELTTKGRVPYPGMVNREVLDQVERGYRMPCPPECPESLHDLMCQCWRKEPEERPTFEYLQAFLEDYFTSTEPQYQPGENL

Activity [8]	Compound	CC50 [1]	Activity (Mus musculus [2])	Activity (Mus musculus [3])	Activity (HL-60 [4])	Activity (HL-60 [5])	Activity (HL-60 [6])	Activity (HL-60 [7])
–	O=C(Nc1nnc(SCc2ccc(F)cc2)s1)c1ccc(F)cc1	2200 nM	Active	Active	Active	inactive	Active	Active
inactive	O=C(Nc1nnc(CCc2ccccc2)s1)c1ccc(I)cc1	–	–	–	–	–	–	–
